According to US20230226065A1, “ANTI-INFLAMMATORY COMPOSITIONS, METHODS AND USES THEREOF” (COMVITA LIMITED, priority 2020, published 2023):

Assays:
[1] = system: MMP-9 secretion in differentiated THP-1 cells; assay: LPS induced MMP-9 secretion in differentiated THP-1 cells (ELISA); type: cell-based, human; conditions: 6 μM Azithromycin positive control; LPS 1 μg/mL; P=0.00
Protocol: THP-1 cells (ATCC, ATCTIB202) were grown in RPMI-1640 (Gibco, 11875093)+0.05 mM 2-mercaptoethanol+10% fetal calf serum (FCS)+1% pen-strep. For experiments, the cells were cultured in RPMI-1640 medium with 10% fetal bovine serum (FBS) only.
THP-1 monocyte cells were seeded at a density of 2.5×10^5 cells/ml in 96-well plates and differentiated into macrophages using 10 ng/ml of phorbol 12-myristate 13-acetate (PMA) (Bergin et al) (Sigma, P1585-1MG, Lot #SLBX889, 100% purity) for 72 hours. PMA media was then removed from the differentiated THP-1 cells, the cells were then washed once in RPMI-1640 media and then left to rest for 5 hours.
The differentiated THP-1 cells were stimulated with LPS from E. coli 055:B5 (Sigma, L6529; Lot #037K4068). LPS tested at a concentration of 1 μg/ml (Kong et al). […] After 24 hours, the cell culture media was collected and measured for MMP-9 concentration using MMP-9 ELISA (R&D systems, RDSDY91105 lot #P239459 and DY008 Lot #P239900). […]
In order to better capture the variability, each treatment was done at least in triplicate in each plate (2 plates). Media from the triplicate wells were pooled and analysed in duplicates for the MMP-9 ELISA. […]

THP-1 cells = assay: WST-1 cell viability assay, LPS-stimulated THP-1 cells; type: cell-based; conditions: 10 μg/mL dexamethasone; LPS co-stimulation 18 hours
Protocol: Human monocytic THP-1 cells were seeded in 96-well tissue-culture treated plates at a density of 50,000 cells/well in growth media (RPMI media supplemented with 10% fetal bovine serum, 2 mM L-glutamine and penicillin-streptomycin) overnight. […] Control wells were treated with hydrogen peroxide (0, 0.5, 1, and 2 mM) for 1 hour prior to addition of WST-1 reagent (Roche, NZ). WST-1 reagent was added to all wells at the end of the 18 hour incubation period, and absorbance readings were subsequently measured 30 min and 1 h and 10 mins after WST-1 addition. Cell viability expressed the percent change from the LPS-stimulated PBS control.

[2] = system: COX-2 protein expression in THP-1 cells; assay: LPS-induced COX-2 protein expression in THP-1 cells (Western blot); type: cell-based, human
Protocol: THP-1 cells were seeded in 12-well tissue-culture treated plates at a density of 500,000 cells/well in growth media overnight. […] Cells were washed with cold PBS and lysed in RIPA buffer containing protease inhibitors (Sigma P2714) for 15 minutes on ice. Debris was pelleted by centrifugation at 14,000×g for 15 min and lysate supernatants were frozen at −80° C. for later analysis by western blot.
Western blots for semi-quantitative COX-2 (Abcam ab188183) protein expression were conducted on THP-1 monocyte cells lysed with RIPA buffer containing protease inhibitors. A total of 10 μg protein was loaded onto precast 10% acrylamide gels (BioRad, NZ) then separated by electrophoresis at 120 V at room temperature. […] The membranes were then incubated with the primary antibody that correspond to the protein of interest for 1 h. […] Western blot images were captured with an Amersham™ Imager 600 (GE Healthcare, Chicago, Ill., USA) and densitometry measurement of protein bands was analysed with the accompanying image analysis software.
For analysis of Western blots, densitometry measurements from the proteins of interest were normalised to the densitometry of p-actin for each sample. […] The significance level was set at p≤0.05.

recombinant MMP-9 enzyme [3] = target: T1, recombinant MMP-9 enzyme (Homo sapiens, UniProt P14780); assay: MMP-9 inhibitor screening assay (fluorometric); type: biochemical; conditions: NNGH inhibitor control
T1 construct: purchased Abcam ab139449
T1 sequence (P14780 94-707): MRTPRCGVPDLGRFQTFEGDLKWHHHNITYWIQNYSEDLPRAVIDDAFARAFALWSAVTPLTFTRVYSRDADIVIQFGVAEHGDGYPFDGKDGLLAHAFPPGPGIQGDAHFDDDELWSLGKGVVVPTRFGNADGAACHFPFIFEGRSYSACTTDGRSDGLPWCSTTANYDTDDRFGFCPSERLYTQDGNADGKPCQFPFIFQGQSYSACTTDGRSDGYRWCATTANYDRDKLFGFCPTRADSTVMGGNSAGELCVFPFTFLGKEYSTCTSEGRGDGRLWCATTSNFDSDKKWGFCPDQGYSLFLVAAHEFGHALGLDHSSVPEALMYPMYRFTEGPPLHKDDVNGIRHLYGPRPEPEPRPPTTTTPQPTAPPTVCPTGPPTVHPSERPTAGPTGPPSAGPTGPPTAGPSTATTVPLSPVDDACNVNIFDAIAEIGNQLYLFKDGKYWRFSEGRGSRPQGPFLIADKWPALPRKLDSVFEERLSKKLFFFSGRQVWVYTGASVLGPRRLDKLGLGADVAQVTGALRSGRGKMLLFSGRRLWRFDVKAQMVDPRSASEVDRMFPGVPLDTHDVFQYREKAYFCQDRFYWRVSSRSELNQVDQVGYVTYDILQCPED
Protocol: The MMP-9 inhibitor screening assay (fluorometric) kits were purchased from Abcam (Melbourne, Australia). The fluorometric kit contains the recombinant MMP-9 enzyme, MMP inhibitor NNGH (N-isobutyl-N-[4-methoxyphenylsulfonyl]glycyl hydroxamic acid), MMP fluorogenic substrate solubilised in DMSO, the fluorometric assay buffer and 96-well clear microplate.
Inhibitory activity on MMP-9 was assessed using the commercial MMP-9 inhibitor screening assay kit. MMP-9 activity was expressed as a change in fluorescence intensity measured using SpectraMax iD3 multi-mode microplate reader (Molecular Devices, San Jose, USA).
The assay employs a FRET-tagged (fluorescence resonance energy transfer) substrate, which can be hydrolysed by MMP-9 at a specific site (Abcam, 2018). The cleavage of the FRET substrate releases the quenched fluorescent Mca (7-methoxycoumarin-4-yl)-acetyl group (Abcam, 2018). The kit employs a quenched fluorogenic substrate Mca-Pro-Leu-Gly-Leu-Dpa-Ala-Arg-NH2, where the Mca fluorescence is quenched by Dpa until cleavage by MMPs. The amount of fluorescent product yielded by MMP-9 can be detected fluorometrically and it is proportional to the enzyme activity. Fluorescence were measured at ex320 nm-em395 nm to minimise fluorescence interference from 3,6,7-trimethyllumazine at ex330 nm-em470 nm. […]

recombinant MMP-9 enzyme [4] = target: T1, recombinant MMP-9 enzyme; assay: MMP-9 inhibitor screening assay (colorimetric); type: biochemical; conditions: NNGH at 1.3 μM
Source text: The MMP-9 inhibitor screening assay (colorimetric) kits were purchased from Abcam (Melbourne, Australia). The kit contains the recombinant MMP-9 enzyme, MMP inhibitor NNGH, MMP chromogenic substrate, the colorimetric assay buffer and 96-well clear microplate.
The colorimetric kit uses a thiopeptide as a chromogenic substrate (Ac-PLG-[2-mercapto-4-methyl-pentanoyl]-LG-OC2H5), which can be hydrolysed by MMPs to produce a sulfhydryl group. This intermediate product further reacts with DTNB [5,5′-dithiobis(2-nitrobenzoic acid), Ellman's reagent] to form 2-nitro-5-thiobenzoic acid, which can be detected by absorbance at 412 nm. The change in absorbance was measured using the SpectraMax iD3 multi-mode microplate reader (Molecular Devices, San Jose, USA). The assays are performed on a convenient 96-wells microplate with a final reaction volume of 100 μL. Prior to the assay, all testing samples and inhibitor controls were incubated with MMP-9 for 60 min at 37° C. […] The absorbance was measured at 1 min intervals during the first 20 min, then 10 min intervals till the end of assay.
Recombinant MMP-9 and the chromogenic substrate were used as the positive control to represent 100% enzyme activity. […] A range of 3,6,7-trimethyllumazine concentrations were diluted with the colorimetric assay buffer to measure the absorbance of the reaction product.

active MMP-9 = assay: Gelatin gel zymography, active MMP-9 band; type: biochemical; conditions: NNGH 2.6 μM in developing buffer; active MMP-9
Protocol: Novex™ 10% Zymogram Plus (Gelatin) Protein Gels (15 wells) were purchased from Thermo Fisher Scientific Inc. (Auckland, New Zealand). All chemicals required for the zymogram analysis were also purchased from Thermo Fisher, these include Novex™ Sharp Pre-stained Protein Standard, Novex Tris-Glycine SDS sample buffer, Novex Tris-Glycine SDS running buffer, Novex Zymogram renaturing buffer and Novex Zymogram developing buffer. […] Gelatin gel zymography was performed as an independent technique to confirm the inhibition of MMP-9 from 3,6,7-trimethyllumazine. This technique uses a non-reducing SDS-PAGE (sodium dodecyl sulfate polyacrylamide gel electrophoresis) gel embedded with gelatin. Proteins are migrated and separated during electrophoresis. The SDS is removed after electrophoresis and the gel is then incubated with essential cofactors required for enzymatic activity. The embedded gelatin can be digested by MMP-9, resulting in clear bands on a dark blue background after staining with Coomassie blue dyes. The gelatinase activity is represented by band densitometry, which can be assessed with image analysis software. […]
After incubation, the gelatin gel was rinsed with water for three times (5 min each) under gentle agitation. […] MMP-9 activities were analysed using densitometry on ImageJ Version 1.52a. […]

## CC[C@H]1OC(=O)[C@H](C)[C@@H](O[C@H]2C[C@@](C)(OC)[C@@H](O)[C@H](C)O2)[C@H](C)[C@@H](O[C@@H]2O[C@H](C)C[C@H](N(C)C)[C@H]2O)[C@](C)(O)C[C@@H](C)CN(C)[C@H](C)[C@@H](O)[C@]1(C)O [Azithromycin]
[1]
  effect on MMP-9 secretion: inhibits MMP-9 secretion

## C[C@@H]1C[C@H]2[C@@H]3CCC4=CC(=O)C=C[C@]4(C)[C@@]3(F)[C@@H](O)C[C@]2(C)[C@@]1(O)C(=O)CO [Dexamethasone, reference compound]
THP-1 cells
  cell death (WST-1 cell viability): did not induce cell death
[2]; 10 μg/mL, LPS 24 hours, LPS positive control 1.26 ± 0.11, n=6
  COX-2 Relative expression (mean ± SEM): 0.85 ± 0.07

## COc1ccc2c(c1)c(CC(=O)O)c(C)n2C(=O)c1ccc(Cl)cc1 [Indomethacin, reference compound]
[2]; indomethacin 10 μmol/L
  reduction of LPS-induced COX-2 expression: did not significantly reduce

## COc1ccc(S(=O)(=O)N(CC(=O)NO)CC(C)C)cc1 [NNGH, N-isobutyl-N-[4-methoxyphenylsulfonyl]glycyl hydroxamic acid, reference compound]
Recombinant MMP-9 enzyme [3]
  change in fluorescence (MMP-9 activity): almost no change in fluorescence
Recombinant MMP-9 enzyme [4]
  inhibition of MMP-9 activity: inhibited most of the MMP-9 activity
Active MMP-9
  inhibition of gelatinase activity: completely inhibited
